Bridge positions count the residues as written; N and C are the ends. Square brackets hold non-standard residues; d marks the D form. Peptide text beside a SMILES is read from it. * marks the point of attachment. X1 = O=C(COCC(=O)*)Nc1ccc(CCC(=O)N2CCC2=O)cc1; Aad = N[C@@H](CCCC(=O)O)C(=O)O
Experiments:
[1] = target: T1, Placenta growth factor (Mus musculus, UniProt P49764); assay: Inhibition of mouse PlGF-VEGFR-1 interaction by ELISA
T1 sequence (P49764 whole entry): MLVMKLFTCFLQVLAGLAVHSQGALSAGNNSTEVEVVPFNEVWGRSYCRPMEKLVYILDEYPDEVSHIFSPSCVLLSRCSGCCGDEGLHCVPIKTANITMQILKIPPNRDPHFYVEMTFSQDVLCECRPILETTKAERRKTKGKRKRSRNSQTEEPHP

[2] = target: T2, Placenta growth factor (Homo sapiens, UniProt P49763); assay: Binding affinity to human PlGF-1; conditions: read-out: Kd
T2 sequence (P49763 whole entry): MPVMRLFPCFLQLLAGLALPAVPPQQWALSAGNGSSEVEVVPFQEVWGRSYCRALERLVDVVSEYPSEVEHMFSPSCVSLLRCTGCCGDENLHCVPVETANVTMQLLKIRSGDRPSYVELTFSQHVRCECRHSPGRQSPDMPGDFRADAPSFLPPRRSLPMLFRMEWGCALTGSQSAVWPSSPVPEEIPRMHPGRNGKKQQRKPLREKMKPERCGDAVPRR

[3] = Stability in Swiss Webster mouse serum assessed as functional compound remaining after 6 hrs; assay type: ADME, cell-free; conditions: read-out: Stability
[4] = target: T2, Placenta growth factor; assay: Inhibition of human PlGF-1-VEGFR-1 interaction by ELISA

Row | IC50 [1] | Kd [2] | remaining at 6 h [3] | IC50 [4] | Structure (SMILES)
1 | > 1 µM | > 1 µM |  |  | CSCC[C@H](NC(=O)[C@@H](NC(=O)[C@H](CCCCNC(C)=O)NC(=O)[C@@H]1CSSC[C@H](NC(=O)[C@@H](NC(=O)[C@H](CC(=O)O)NC(=O)[C@H](Cc2ccccc2)NC(C)=O)C(C)C)C(=O)N[C@@H](CC(N)=O)C(=O)N[C@@H](Cc2c[nH]c3ccccc23)C(=O)N[C@@H](C(C)C)C(=O)N[C@@H]([C@@H](C)O)C(=O)N[C@@H](CC(C)C)C(=O)N2CCC[C@H]2C(=O)N[C@@H](CCCCNC(=O)COCC(=O)Nc2ccc(CCC(=O)N3CCC3=O)cc2)C(=O)N1)C(C)C)C(N)=O (Ac-FDVCNWVTLPK(X1)CK(Ac)VM-NH2; disulfide 4-12)
2 | > 1 µM | > 1 µM |  |  | CSCC[C@H](NC(=O)[C@@H](NC(=O)[C@H](CCCCNC(C)=O)NC(=O)[C@@H]1CSSC[C@H](NC(=O)[C@@H](NC(=O)[C@H](CC(=O)O)NC(=O)[C@H](Cc2ccccc2)NC(C)=O)C(C)C)C(=O)N[C@@H](CC(N)=O)C(=O)N[C@@H](Cc2c[nH]c3ccccc23)C(=O)N[C@@H](C(C)C)C(=O)N[C@@H]([C@@H](C)O)C(=O)N[C@@H](CCCCNC(=O)COCC(=O)Nc2ccc(CCC(=O)N3CCC3=O)cc2)C(=O)N2CCC[C@H]2C(=O)N[C@@H](Cc2cnc[nH]2)C(=O)N1)C(C)C)C(N)=O (Ac-FDVCNWVTK(X1)PHCK(Ac)VM-NH2; disulfide 4-12)
3 | > 1 µM | > 1 µM |  |  | CSCC[C@H](NC(=O)[C@@H](NC(=O)[C@H](CCCCNC(C)=O)NC(=O)[C@@H]1CSSC[C@H](NC(=O)[C@@H](NC(=O)[C@H](CC(=O)O)NC(=O)[C@H](Cc2ccccc2)NC(C)=O)C(C)C)C(=O)N[C@@H](CC(N)=O)C(=O)N[C@@H](Cc2c[nH]c3ccccc23)C(=O)N[C@@H](CCCCNC(=O)COCC(=O)Nc2ccc(CCC(=O)N3CCC3=O)cc2)C(=O)N[C@@H]([C@@H](C)O)C(=O)N[C@@H](CC(C)C)C(=O)N2CCC[C@H]2C(=O)N[C@@H](Cc2cnc[nH]2)C(=O)N1)C(C)C)C(N)=O (Ac-FDVCNWK(X1)TLPHCK(Ac)VM-NH2; disulfide 4-12)
4 | > 1 µM | > 1 µM |  |  | CSCC[C@H](NC(=O)[C@@H](NC(=O)[C@H](CCCCNC(C)=O)NC(=O)[C@@H]1CSSC[C@H](NC(=O)[C@@H](NC(=O)[C@H](CC(=O)O)NC(=O)[C@H](Cc2ccccc2)NC(C)=O)C(C)C)C(=O)N[C@@H](CC(N)=O)C(=O)N[C@@H](CCCCNC(=O)COCC(=O)Nc2ccc(CCC(=O)N3CCC3=O)cc2)C(=O)N[C@@H](C(C)C)C(=O)N[C@@H]([C@@H](C)O)C(=O)N[C@@H](CC(C)C)C(=O)N2CCC[C@H]2C(=O)N[C@@H](Cc2cnc[nH]2)C(=O)N1)C(C)C)C(N)=O (Ac-FDVCNK(X1)VTLPHCK(Ac)VM-NH2; disulfide 4-12)
5 | 0.624 µM | 0.006 µM |  |  | CSCC[C@H](NC(=O)[C@@H](NC(=O)[C@H](CCCCNC(C)=O)NC(=O)[C@@H]1CSSC[C@H](NC(=O)[C@@H](NC(=O)[C@H](CC(=O)O)NC(=O)[C@H](Cc2ccccc2)NC(C)=O)C(C)C)C(=O)N[C@@H](CCCCNC(=O)COCC(=O)Nc2ccc(CCC(=O)N3CCC3=O)cc2)C(=O)N[C@@H](Cc2c[nH]c3ccccc23)C(=O)N[C@@H](C(C)C)C(=O)N[C@@H]([C@@H](C)O)C(=O)N[C@@H](CC(C)C)C(=O)N2CCC[C@H]2C(=O)N[C@@H](Cc2cnc[nH]2)C(=O)N1)C(C)C)C(N)=O (Ac-FDVCK(X1)WVTLPHCK(Ac)VM-NH2; disulfide 4-12)

The next lines start with the compound.

Row | Structure (SMILES) | IC50 [1] | Kd [2] | remaining at 6 h [3] | IC50 [4]
6 | CSCC[C@H](NC(=O)[C@@H](NC(=O)[C@H](CCCCNC(C)=O)NC(=O)[C@@H]1CSSC[C@H](NC(=O)[C@H](CCCCNC(=O)COCC(=O)Nc2ccc(CCC(=O)N3CCC3=O)cc2)NC(=O)[C@H](CC(=O)O)NC(=O)[C@H](Cc2ccccc2)NC(C)=O)C(=O)N[C@@H](CC(N)=O)C(=O)N[C@@H](Cc2c[nH]c3ccccc23)C(=O)N[C@@H](C(C)C)C(=O)N[C@@H]([C@@H](C)O)C(=O)N[C@@H](CC(C)C)C(=O)N2CCC[C@H]2C(=O)N[C@@H](Cc2cnc[nH]2)C(=O)N1)C(C)C)C(N)=O (Ac-FDK(X1)CNWVTLPHCK(Ac)VM-NH2; disulfide 4-12) | > 1 µM | > 1 µM |  | 
7 | CC[C@H](C)[C@@H]1NC(=O)[C@H](Cc2ccc(O)cc2)NC(=O)[C@H](Cc2cnc[nH]2)NC(=O)[C@@H](NC(=O)[C@@H](NC(=O)[C@H](CCC(=O)O)NC(=O)[C@H](Cc2ccccc2)NC(C)=O)C(C)C)CSSC[C@@H](C(=O)N[C@H](C(=O)N[C@@H](CCCN=C(N)N)C(=O)N[C@@H](Cc2ccc(O)cc2)C(N)=O)[C@@H](C)O)NC(=O)[C@H](Cc2cnc[nH]2)NC(=O)[C@@H]2CCCN2C(=O)[C@H](CC(C)C)NC(=O)[C@H](CCCN=C(N)N)NC1=O (Ac-FEVCHYIRLPHCTRY-NH2; disulfide 4-12) | 0.4 µM |  |  | 
8 | CC[C@H](C)[C@@H]1NC(=O)[C@H](Cc2ccc(O)cc2)NC(=O)[C@H](Cc2cnc[nH]2)NC(=O)[C@@H](NC(=O)[C@@H](NC(=O)[C@H](CCC(=O)O)NC(=O)[C@H](Cc2ccccc2)NC(C)=O)C(C)C)CSSC[C@@H](C(=O)N[C@@H](C(=O)N[C@H](CCCN=C(N)N)C(=O)N[C@H](Cc2ccc(O)cc2)C(N)=O)[C@@H](C)O)NC(=O)[C@H](Cc2cnc[nH]2)NC(=O)[C@@H]2CCCN2C(=O)[C@H](CC(C)C)NC(=O)[C@H](CCCCNC(=O)COCC(=O)Nc2ccc(CCC(=O)N3CCC3=O)cc2)NC1=O | 0.0002 µM |  | 23% | 
9 | CSCC[C@H](NC(=O)[C@@H](NC(=O)[C@H](CCCCNC(C)=O)NC(=O)[C@@H]1CSSC[C@H](NC(=O)[C@@H](NC(=O)[C@H](CC(=O)O)NC(=O)[C@H](Cc2ccccc2)NC(C)=O)C(C)C)C(=O)N[C@@H](CC(N)=O)C(=O)N[C@@H](Cc2c[nH]c3ccccc23)C(=O)N[C@@H](C(C)C)C(=O)N[C@@H]([C@@H](C)O)C(=O)N[C@@H](CC(C)C)C(=O)N[C@@H](CCCCNC(=O)COCC(=O)Nc2ccc(CCC(=O)N3CCC3=O)cc2)C(=O)N[C@@H](Cc2cnc[nH]2)C(=O)N1)C(C)C)C(N)=O (Ac-FDVCNWVTLK(X1)HCK(Ac)VM-NH2; disulfide 4-12) | > 1 µM | > 1 µM |  | 
10 | CSCC[C@H](NC(=O)[C@@H](NC(=O)[C@H](CCCCNC(=O)COCC(=O)Nc1ccc(CCC(=O)N2CCC2=O)cc1)NC(=O)[C@@H]1CSSC[C@H](NC(=O)[C@@H](NC(=O)[C@H](CC(=O)O)NC(=O)[C@H](Cc2ccccc2)NC(C)=O)C(C)C)C(=O)N[C@@H](CC(N)=O)C(=O)N[C@@H](Cc2c[nH]c3ccccc23)C(=O)N[C@@H](C(C)C)C(=O)N[C@@H]([C@@H](C)O)C(=O)N[C@@H](CC(C)C)C(=O)N2CCC[C@H]2C(=O)N[C@@H](Cc2cnc[nH]2)C(=O)N1)C(C)C)C(N)=O (Ac-FDVCNWVTLPHCK(X1)VM-NH2; disulfide 4-12) | 0.054 µM | 0.004 µM | 11% | 
11 | CC[C@H](C)[C@@H]1NC(=O)[C@H](Cc2ccc(O)cc2)NC(=O)[C@H](Cc2cnc[nH]2)NC(=O)[C@@H](NC(=O)[C@@H](NC(=O)[C@H](CCC(=O)O)NC(=O)[C@H](Cc2ccccc2)NC(C)=O)C(C)C)CSSC[C@@H](C(=O)N[C@H](C(=O)N[C@@H](CCCN=C(N)N)C(=O)N[C@@H](Cc2ccc(O)cc2)C(N)=O)[C@@H](C)O)NC(=O)[C@H](Cc2cnc[nH]2)NC(=O)[C@@H]2CCCN2C(=O)[C@H](CC(C)C)NC(=O)[C@H](CCCCNC(=O)COCC(=O)Nc2ccc(CCC(=O)N3CCC3=O)cc2)NC1=O | 0.0007 µM | 0.0003 µM | 4% | 
12 | CSCC[C@H](NC(=O)[C@@H](NC(=O)[C@H](CCCCN)NC(=O)[C@@H]1CSSC[C@H](NC(=O)[C@@H](NC(=O)[C@H](CC(=O)O)NC(=O)[C@H](Cc2ccccc2)NC(C)=O)C(C)C)C(=O)N[C@@H](CCCCN)C(=O)N[C@@H](Cc2c[nH]c3ccccc23)C(=O)N[C@@H](C(C)C)C(=O)N[C@@H]([C@@H](C)O)C(=O)N[C@@H](CC(C)C)C(=O)N2CCC[C@H]2C(=O)N[C@@H](Cc2cnc[nH]2)C(=O)N1)C(C)C)C(N)=O (Ac-FDVCKWVTLPHCKVM-NH2; disulfide 4-12) |  | 1 µM |  | 1 µM
13 | CSCC[C@H](NC(=O)[C@@H](NC(=O)[C@H](CCCCN)NC(=O)[C@@H]1CSSC[C@H](NC(=O)[C@@H](NC(=O)[C@H](CC(=O)O)NC(=O)[C@H](Cc2ccccc2)NC(=O)COCC(=O)Nc2ccc(CCC(=O)N3CCC3=O)cc2)C(C)C)C(=O)N[C@@H](CCCCN)C(=O)N[C@@H](Cc2c[nH]c3ccccc23)C(=O)N[C@@H](C(C)C)C(=O)N[C@@H]([C@@H](C)O)C(=O)N[C@@H](CC(C)C)C(=O)N2CCC[C@H]2C(=O)N[C@@H](Cc2cnc[nH]2)C(=O)N1)C(C)C)C(N)=O (X1-FDVCKWVTLPHCKVM-NH2; disulfide 4-12) |  | 0.2 µM |  | 1 µM
14 | CSCC[C@H](NC(=O)[C@H](CCCCN)NC(=O)[C@@H]1CSSC[C@H](NC(=O)[C@@H](NC(=O)[C@H](CC(=O)O)NC(=O)[C@H](Cc2ccccc2)NC(C)=O)C(C)C)C(=O)N[C@@H](CC(N)=O)C(=O)N[C@@H](Cc2c[nH]c3ccccc23)C(=O)N[C@@H](C(C)C)C(=O)N[C@@H]([C@@H](C)O)C(=O)N[C@@H](CC(C)C)C(=O)N2CCC[C@H]2C(=O)N[C@@H](Cc2cnc[nH]2)C(=O)N1)C(=O)N[C@@H](CCCC(N)=O)C(N)=O (Ac-FDVCNWVTLPHCKM[Aad](NH2)-NH2; disulfide 4-12) |  |  |  | 1 µM
15 | CSCC[C@H](NC(=O)[C@H](Cc1ccccc1)NC(C)=O)C(=O)N[C@H](C(=O)N[C@H]1CSSC[C@@H](C(=O)N2CCC[C@H]2C(=O)N[C@@H](CCSC)C(=O)N[C@@H](CCC(N)=O)C(N)=O)NC(=O)[C@H](Cc2c[nH]c3ccccc23)NC(=O)[C@@H]2CCCN2C(=O)[C@H](CC(C)C)NC(=O)[C@H]([C@@H](C)O)NC(=O)[C@H](C(C)C)NC(=O)[C@H](Cc2ccc(O)cc2)NC(=O)[C@H](CC(N)=O)NC1=O)C(C)C (Ac-FMVCNYVTLPWCPMQ-NH2; disulfide 4-12) |  |  |  | 19 µM
